Test results published in patent US6689567B1, “Method for assaying the function of FlaA1 and WbpM” (priority 1999, dated 2004).
Values joined by “and” are separate entries in the source; they are usually repeats but may differ in a detail not shown here. Identical values can stand only once.

Columns and labels:
[1] = molecular target: T1, FlaA1 (Helicobacter pylori, UniProt O25511); assay: Substrate specificity of FlaA1 (catalysis with related sugar-nucleotides); assay type: biochemical
T1 construct: hexahistidine tag (N); made in house; host or cells: E. coli BL21(DE3)pLysS (pET23 derivative)
T1 sequence (O25511 whole entry): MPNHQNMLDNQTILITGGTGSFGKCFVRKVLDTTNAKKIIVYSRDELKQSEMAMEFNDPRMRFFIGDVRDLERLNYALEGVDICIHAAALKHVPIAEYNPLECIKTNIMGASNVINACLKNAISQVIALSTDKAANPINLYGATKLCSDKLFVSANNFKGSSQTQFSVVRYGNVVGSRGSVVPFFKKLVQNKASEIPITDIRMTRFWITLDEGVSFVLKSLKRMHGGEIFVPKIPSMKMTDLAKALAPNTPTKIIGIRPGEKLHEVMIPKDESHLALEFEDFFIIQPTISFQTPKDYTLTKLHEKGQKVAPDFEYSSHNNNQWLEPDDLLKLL

[2] = molecular target: T1, FlaA1; assay: Capillary electrophoresis analysis of reaction products and kinetic parameters of FlaA1; assay type: biochemical; settings: for reaction products identified by capillary electrophoresis: sugar-nucleotide used as substrate of FlaA1
Procedure: The same reactions as above were prepared for capillary analysis using varying amounts of enzyme (440 or 54 ng) and 1 mM NAD^+ or not. The reaction mix was incubated for different reaction times. The specific conditions are indicated above. After incubation at 37° C. for the required amount of time, the reactions were quenched by boiling the sample for 6 min. Time course studies were performed with final sugar-nucleotide concentrations of 0.1 and 1.5 mM without NAD^+. Samples were quenched every 15 minutes for 2 h. […] Reactions were also performed using varying buffers such as 20 mM sodium phosphate or bis-tris-propane at pH 7, or 20 mM sodium acetate pH 6.5 and processed for CE analysis as described above.
Capillary electrophoresis (CE) analysis were performed using a P/ACE 5000 system (Beckman, Fullerton, Calif.) with UV detection as described before (Creuzenet et al. 2000). Briefly summarised, the running buffer was 25 mM sodium tetraborate pH 9.4. The capillary was bare silica 75 μm×57 cm, with a detector at 50 cm. The capillary was conditioned before each run by washing with 0.2 M NaOH for 2 min, water for 2 min, and running buffer for 2 min. Samples were introduced by pressure injection for 4 s and the separation was performed at 22 kV. Peak integration was done using the Beckman P/ACE Station software. Kinetic parameters were calculated by linear regression from Eadie-Hofstee plots.
The same reactions as above were prepared for capillary electrophoresis analysis and were quenched by boiling for 6 minutes without prior acidification. Capillary electrophoresis (CE) analysis was performed as described earlier (Creuzenet et al. 2000).

[3] = molecular target: T1, FlaA1; assay: DMAB assay: enzymatic conversion of UDP-GlcNAc and UDP-GalNAc by FlaA1; assay type: biochemical; settings: incubation with FlaA1, 37° C., 20 mM Tris pH 7, 1 mM NAD+
Procedure: Reactions were performed with a total reaction volume of 35 μl at 37° C. in 20 mM Tris pH 7 in the presence of 1.5 mM substrate and 1 mM NAD^+. The reactions were stopped by acid hydrolysis of the UDP moiety of the substrate. For this purpose, the samples were acidified to pH 2 by addition of 7 μl of HCl 1 N, boiled for 6 min, and neutralised by addition of 7 μl of NaOH 1 N. The spectrophotometric quantification of GalNAc and GlcNAc using DMAB was performed as described by Creuzenet et al. 2000. Briefly summarized, 100 μl of 0.2 M sodium tetraborate pH 9.1 were added to 50 μl of quenched and neutralised enzymatic reactions and boiled immediately for 3 min. 40 μl of this mixture were transferred to a microtitration plate and 200 μl of DMAB reagent (1% in glacial acetic acid/HCl 99/1 v/v) were added. After incubation for 30 min at 37° C., the OD595 nm was recorded using a microplate reader. The assay was done in duplicate for each reaction tested. Standard curves were prepared using UDP-GlcNAc and UDP-GalNAc that were subjected to acid hydrolysis in the same conditions as described above.

[4] = molecular target: C4 epimerase WbpP (Pseudomonas aeruginosa, UniProt Q8KN66); settings: Creuzenet et al. 2000; cited from earlier work
Sequence of C4 epimerase WbpP (Q8KN66 whole entry): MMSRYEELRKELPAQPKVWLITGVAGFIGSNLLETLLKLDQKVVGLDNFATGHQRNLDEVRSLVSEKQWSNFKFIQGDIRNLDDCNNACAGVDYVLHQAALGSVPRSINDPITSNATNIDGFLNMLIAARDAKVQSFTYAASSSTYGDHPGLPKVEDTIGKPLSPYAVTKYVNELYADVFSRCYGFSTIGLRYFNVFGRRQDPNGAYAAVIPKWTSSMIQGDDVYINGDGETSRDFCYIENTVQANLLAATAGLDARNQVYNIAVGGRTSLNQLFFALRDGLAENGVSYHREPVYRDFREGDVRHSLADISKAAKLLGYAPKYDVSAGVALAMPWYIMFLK

SMILES	catalysis by FlaA1 (substrate specificity) [1]	reaction products identified by capillary electrophoresis [2]	substrate conversion (decrease in OD595nm, DMAB assay) [3]	Km [4]	kcat ([2]; pH 7, 37° C., 12.8 pmol enzyme)	Km ([2]; pH 7, 37° C., 440 ng fresh enzyme, no NAD+, 20 min)	Vmax ([2]; pH 7, 37° C., 440 ng fresh enzyme, no NAD+, 20 min, total substrate conversion)
CC(=O)N[C@H]1[C@@H](OP(=O)(O)OP(=O)(O)OC[C@H]2O[C@@H](n3ccc(=O)[nH]c3=O)[C@H](O)[C@@H]2O)O[C@H](CO)[C@H](O)[C@@H]1O [UDP-GalNAc, UDP-N-acetylgalactosamine]	can not proceed to catalysis	no reaction products could be identified	< 5%	–	–	–	–
CC(=O)N[C@H]1[C@@H](OP(=O)(O)OP(=O)(O)OC[C@H]2O[C@@H](n3ccc(=O)[nH]c3=O)[C@H](O)[C@@H]2O)O[C@H](CO)[C@@H](O)[C@@H]1O [UDP-GlcNAc, UDP-N-acetylglucosamine]	–	two reaction products were identified	≤ 55%	220 µM	0.085 s⁻¹ and 0.085 ± 0.0067 s⁻¹	159 µM	0.065 nmol/min and 0.065 ± 0.006 nmol/min
Nc1nc2c(ncn2[C@@H]2O[C@H](COP(=O)(O)OP(=O)(O)O[C@H]3O[C@H](CO)[C@@H](O)[C@H](O)[C@@H]3O)[C@@H](O)[C@H]2O)c(=O)[nH]1 [GDP-mannose]	Absence of catalysis	–	–	–	–	–	–
Cc1cn([C@H]2C[C@H](O)[C@@H](COP(=O)(O)OP(=O)(O)OC3O[C@H](CO)[C@@H](O)[C@H](O)[C@H]3O)O2)c(=O)[nH]c1=O (stereo partly drawn) [dTDP-D-glucose]	Absence of catalysis	–	–	–	–	–	–
